According to PubChem BioAssay (NCI):
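Dose response: 5 concentrations. Exposure: 48 h. Format: 96-well plates. Endpoint: linear interpolation; highest concentration if not reached. Definition used: TGI = concentration required for complete inhibition of growth.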

Legend:
Assay in all cases: NCI tumour cell line growth inhibition, 48 h
SNB-19 CNS = test system: SNB-19 CNS
HOP-92 NSCLC = test system: HOP-92 NSCLC
RXF 393 renal = test system: RXF 393 renal
SF-539 CNS = test system: SF-539 CNS
OVCAR-4 ovarian = test system: OVCAR-4 ovarian
SK-MEL-28 melanoma = test system: SK-MEL-28 melanoma
OVCAR-8 ovarian = test system: OVCAR-8 ovarian
SW-620 colon = test system: SW-620 colon
UO-31 renal = test system: UO-31 renal
HCT-116 colon = test system: HCT-116 colon
M14 melanoma = test system: M14 melanoma
NCI/ADR-RES ovarian = test system: NCI/ADR-RES ovarian
U251 CNS = test system: U251 CNS
PC-3 prostate = test system: PC-3 prostate
OVCAR-3 ovarian = test system: OVCAR-3 ovarian
SN12C renal = test system: SN12C renal
DU-145 prostate = test system: DU-145 prostate
SNB-75 CNS = test system: SNB-75 CNS
MDA-MB-231 breast = test system: MDA-MB-231 breast
SF-268 CNS = test system: SF-268 CNS
MDA-N = test system: MDA-N
SF-295 CNS = test system: SF-295 CNS
A498 renal = test system: A498 renal
MDA-MB-435 = test system: MDA-MB-435
KM12 colon = test system: KM12 colon
EKVX NSCLC = test system: EKVX NSCLC
NCI-H226 lung = test system: NCI-H226 lung
SK-MEL-5 melanoma = test system: SK-MEL-5 melanoma
HT29 colon = test system: HT29 colon
HCT-15 colon = test system: HCT-15 colon
CAKI-1 renal = test system: CAKI-1 renal
COLO 205 colon = test system: COLO 205 colon
IGROV1 ovarian = test system: IGROV1 ovarian
ACHN renal = test system: ACHN renal
TK-10 renal = test system: TK-10 renal
OVCAR-5 ovarian = test system: OVCAR-5 ovarian
A549 NSCLC = test system: A549 NSCLC
NCI-H23 lung = test system: NCI-H23 lung
MOLT-4 leukemia = test system: MOLT-4 leukemia
UACC-257 melanoma = test system: UACC-257 melanoma
LOX IMVI melanoma = test system: LOX IMVI melanoma
786-0 renal = test system: 786-0 renal
NCI-H460 lung = test system: NCI-H460 lung
HCC-2998 colon = test system: HCC-2998 colon
BT-549 breast = test system: BT-549 breast
SK-OV-3 ovarian = test system: SK-OV-3 ovarian
SK-MEL-2 melanoma = test system: SK-MEL-2 melanoma
T-47D breast = test system: T-47D breast
MCF7 breast = test system: MCF7 breast
HOP-62 NSCLC = test system: HOP-62 NSCLC

`COc1cc(OC)c(CSCC(NC(=O)OCC2c3ccccc3-c3ccccc32)C(=O)O)c(OC)c1` (stereo not given) gave a TGI (SNB-19 CNS) of over 10 µM, a TGI (HOP-92 NSCLC) of over 10 µM and a TGI (RXF 393 renal) of over 10 µM. The TGI (SF-539 CNS) was over 10 µM, the TGI (OVCAR-4 ovarian) was over 10 µM and the TGI (SK-MEL-28 melanoma) was over 10 µM. For the same molecule, the TGI (OVCAR-8 ovarian) was over 10 µM, the TGI (SW-620 colon) was over 10 µM and the TGI (UO-31 renal) was over 10 µM. It also gave a TGI (HCT-116 colon) of over 10 µM, a TGI (M14 melanoma) of over 10 µM and a TGI (NCI/ADR-RES ovarian) of over 10 µM. The TGI (U251 CNS) was over 10 µM, the TGI (PC-3 prostate) was over 10 µM and the TGI (OVCAR-3 ovarian) was over 10 µM. It also gave a TGI (SN12C renal) of over 10 µM, a TGI (DU-145 prostate) of over 10 µM and a TGI (SNB-75 CNS) of over 10 µM. The TGI (MDA-MB-231 breast) was over 10 µM, the TGI (SF-268 CNS) was over 10 µM and the TGI (MDA-N) was over 10 µM. It also gave a TGI (SF-295 CNS) of over 10 µM, a TGI (A498 renal) of over 10 µM and a TGI (MDA-MB-435) of over 10 µM. It also gave a TGI (KM12 colon) of over 10 µM, a TGI (EKVX NSCLC) of over 10 µM and a TGI (NCI-H226 lung) of over 10 µM. The TGI (SK-MEL-5 melanoma) was over 10 µM, the TGI (HT29 colon) was over 10 µM and the TGI (HCT-15 colon) was over 10 µM. It also gave a TGI (CAKI-1 renal) of over 10 µM, a TGI (COLO 205 colon) of over 10 µM and a TGI (IGROV1 ovarian) of over 10 µM. For the same molecule, the TGI (ACHN renal) was over 10 µM, the TGI (TK-10 renal) was over 10 µM and the TGI (OVCAR-5 ovarian) was over 10 µM. The TGI (A549 NSCLC) was over 10 µM and the TGI (NCI-H23 lung) was over 10 µM.
For `O=C1NC(=O)/C(=C\c2ccncc2)N1`, the TGI (SNB-19 CNS) was over 100 µM, the TGI (MOLT-4 leukemia) was over 100 µM and the TGI (UACC-257 melanoma) was over 100 µM. For the same molecule, the TGI (HOP-92 NSCLC) was over 100 µM, the TGI (SF-539 CNS) was over 100 µM and the TGI (OVCAR-4 ovarian) was over 100 µM. It also gave a TGI (LOX IMVI melanoma) of over 100 µM, a TGI (786-0 renal) of over 100 µM and a TGI (SK-MEL-28 melanoma) of over 100 µM. For the same molecule, the TGI (OVCAR-8 ovarian) was over 100 µM, the TGI (NCI-H460 lung) was over 100 µM and the TGI (SW-620 colon) was over 100 µM. For the same molecule, the TGI (UO-31 renal) was over 100 µM, the TGI (HCC-2998 colon) was over 100 µM and the TGI (HCT-116 colon) was over 100 µM. It also gave a TGI (BT-549 breast) of over 100 µM, a TGI (M14 melanoma) of over 100 µM and a TGI (NCI/ADR-RES ovarian) of over 100 µM. The TGI (U251 CNS) was over 100 µM, the TGI (PC-3 prostate) was over 100 µM and the TGI (SK-OV-3 ovarian) was over 100 µM. The TGI (OVCAR-3 ovarian) was over 100 µM, the TGI (SN12C renal) was over 100 µM and the TGI (DU-145 prostate) was over 100 µM. The TGI (SNB-75 CNS) was over 100 µM, the TGI (MDA-MB-231 breast) was over 100 µM and the TGI (MDA-N) was over 100 µM. For the same molecule, the TGI (SK-MEL-2 melanoma) was over 100 µM, the TGI (SF-295 CNS) was over 100 µM and the TGI (MDA-MB-435) was over 100 µM. The TGI (KM12 colon) was over 100 µM, the TGI (EKVX NSCLC) was over 100 µM and the TGI (NCI-H226 lung) was over 100 µM. For the same molecule, the TGI (SK-MEL-5 melanoma) was over 100 µM, the TGI (HT29 colon) was over 100 µM and the TGI (HCT-15 colon) was over 100 µM. For the same molecule, the TGI (CAKI-1 renal) was over 100 µM, the TGI (T-47D breast) was over 100 µM and the TGI (COLO 205 colon) was over 100 µM. It also gave a TGI (IGROV1 ovarian) of over 100 µM, a TGI (MCF7 breast) of over 100 µM and a TGI (ACHN renal) of over 100 µM. It also gave a TGI (TK-10 renal) of over 100 µM, a TGI (OVCAR-5 ovarian) of over 100 µM and a TGI (A549 NSCLC) of over 100 µM. It also gave a TGI (NCI-H23 lung) of over 100 µM and a TGI (HOP-62 NSCLC) of over 100 µM.
